The supplement of paper PMC10307832

How the values were obtained:
[1] = compound: CC(C)C[C@@H](C(=O)N[C@H](C(=O)OC1CCCC1)c1ccccc1)[C@H](O)C(=O)NO [Tosedostat] + O=C(CCCCCCC(=O)Nc1ccccc1)NO [Vorinostat] (partner 1 µM); test: relative viability (nuclei count vs DMSO), 5 days (fraction); higher = more cells survive
In short: (§1)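 Relative viability divides the nuclei count in treated wells by that in vehicle wells. Lung cancer cell lines were seeded in 1536-well plates, dosed by pin tool the next day, and fixed and stained after 5 days in one step with final 0.05% Triton X-100, 1% formaldehyde and 1 ug/ml Hoechst. Dosing was a single drug or a fixed anchor-drug dose plus five library-drug doses (not always all listed) in √10 steps, and values are medians of duplicate plates imaged at 4×.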

[2] = compound: CC(C)C[C@@H](C(=O)N[C@H](C(=O)OC1CCCC1)c1ccccc1)[C@H](O)C(=O)NO [Tosedostat] + NC(=O)Nc1cc(-c2cccc(F)c2)sc1C(=O)N[C@H]1CCCNC1 [AZD7762] (partner 0.2 µM); test: as above
In short: as §1

| Cell Line | relative viability ([1]; first compound 0.02 µM) | relative viability ([1]; first compound 0.06325 µM) | relative viability ([1]; first compound 0.2 µM) | relative viability ([1]; first compound 0.6325 µM) | relative viability ([1]; first compound 2 µM) | relative viability ([2]; first compound 0.02 µM) | relative viability ([2]; first compound 0.06325 µM) | relative viability ([2]; first compound 0.2 µM) | relative viability ([2]; first compound 0.6325 µM) | relative viability ([2]; first compound 2 µM) |
| --- | --- | --- | --- | --- | --- | --- | --- | --- | --- | --- |
| 201T | 1.01 | 0.997 | 0.99 | 0.962 | 0.981 | 0.592 | 0.668 | 0.669 | 0.584 | 0.576 |
| A-427 | 0.893 | 0.893 | 0.85 | 0.853 | 0.801 | 0.787 | 0.804 | 0.773 | 0.682 | 0.698 |
| ABC-1 | 1.33 | 1.29 | 0.954 | 0.974 | 0.693 | 1.2 |  | 0.755 | 0.822 | 0.732 |
| BEN | 0.645 | 0.602 | 0.678 | 0.761 | 0.888 | 0.813 | 0.724 | 0.901 | 1.12 | 1.04 |
| CAL-12T | 1.05 | 0.678 | 0.656 | 0.572 | 0.685 | 0.703 | 0.577 | 0.593 | 0.678 | 0.629 |
| COR-L23 | 0.57 | 0.454 | 0.38 | 0.343 | 0.399 |  |  |  |  |  |
| COR-L 105 | 0.92 | 0.825 | 1.1 | 0.785 | 0.759 |  |  |  |  |  |
| ChaGo-K-1 | 0.803 | 0.754 | 0.771 | 0.717 | 0.62 | 0.957 | 0.889 | 0.81 | 0.767 | 0.603 |
| EKVX | 0.722 | 0.647 | 0.764 | 0.688 | 0.773 | 0.821 | 0.71 | 0.747 | 0.761 | 0.657 |
| EMC-BAC-2 | 0.605 | 0.713 | 0.471 | 0.408 | 0.323 | 1.09 | 1.02 | 1.1 | 1.07 | 0.859 |
| EPLC-272H | 0.509 | 0.489 | 0.347 | 0.401 | 0.269 | 0.248 | 0.232 | 0.267 | 0.153 | 0.192 |
| H3255 | 0.759 | 0.752 | 0.799 | 0.608 | 0.783 | 1.04 | 0.919 | 0.953 | 0.81 | 0.746 |
| HARA | 1.35 | 0.531 | 0.544 | 0.377 | 0.295 | 0.41 | 0.459 | 0.261 | 0.477 | 0.262 |
| HCC-15 | 0.941 | 0.849 | 0.826 | 0.757 | 0.745 | 1.25 | 1.17 | 1.29 | 1.31 | 1.15 |
| HCC-44 | 1.26 | 1.07 | 1.09 | 1.04 | 1.07 | 1.08 | 1 | 1.03 | 1.06 | 0.965 |
| HCC-78 | 0.472 | 0.42 | 0.452 | 0.501 | 0.486 | 0.355 | 0.771 | 0.65 | 0.738 | 0.791 |
| HCC-366 | 0.426 | 0.305 | 0.394 | 0.386 | 0.352 | 0.291 | 0.34 | 0.428 | 0.361 | 0.485 |
| HCC-827 | 0.545 | 0.94 | 0.861 | 0.73 | 0.718 | 0.201 | 0.257 | 0.347 | 0.176 | 0.178 |

| Cell Line | relative viability ([1]; first compound 0.02 µM) | relative viability ([1]; first compound 0.06325 µM) | relative viability ([1]; first compound 0.2 µM) | relative viability ([1]; first compound 0.6325 µM) | relative viability ([1]; first compound 2 µM) | relative viability ([2]; first compound 0.02 µM) | relative viability ([2]; first compound 0.06325 µM) | relative viability ([2]; first compound 0.2 µM) | relative viability ([2]; first compound 0.6325 µM) | relative viability ([2]; first compound 2 µM) |
| --- | --- | --- | --- | --- | --- | --- | --- | --- | --- | --- |
| HOP-62 | 0.819 | 0.516 | 0.612 | 0.561 | 0.372 | 0.56 | 0.556 | 0.753 | 0.345 | 0.379 |
| IA-LM | 1.09 | 0.844 | 0.791 | 0.899 | 0.878 |  |  |  |  |  |
| LC-2-ad | 0.835 | 0.702 | 0.7 | 0.688 | 0.512 | 0.929 | 0.85 | 0.873 | 0.8 | 0.918 |
| LCLC-97TM1 | 0.682 | 0.602 | 0.533 | 0.532 | 0.47 | 0.291 | 0.209 | 0.164 | 0.197 | 0.195 |
| LCLC-103H | 0.787 | 0.773 | 0.761 | 0.776 | 0.784 | 0.886 | 0.713 | 0.69 | 0.77 | 0.852 |
| LK-2 | 0.34 | 0.364 | 0.24 | 0.266 | 0.251 | 0.459 | 0.475 | 0.381 | 0.354 | 0.617 |
| LOU-NH91 | 0.983 | 0.932 | 0.898 | 0.764 | 0.693 | 0.805 | 0.862 | 0.802 | 0.745 | 0.624 |
| LU99A | 0.573 | 0.583 | 0.445 | 0.388 | 0.381 | 0.369 | 0.333 | 0.374 | 0.293 | 0.297 |
| LXF-289 | 0.818 | 0.716 | 0.822 | 0.703 | 0.771 | 1.17 | 1.08 | 1.19 | 1.05 | 1.08 |
| NCI-H23 | 0.646 | 0.52 | 0.707 | 0.502 | 0.51 | 0.31 | 0.248 | 0.232 | 0.202 | 0.253 |
| NCI-H322M | 0.855 | 0.958 | 0.887 | 0.995 | 0.802 | 0.648 | 0.56 | 0.641 | 0.613 | 0.567 |
| NCI-H358 | 0.669 | 0.562 | 0.478 | 0.313 | 0.264 | 0.71 | 0.471 | 0.434 | 0.317 | 0.34 |
| NCI-H441 | 0.809 | 0.654 | 0.759 | 0.55 | 0.547 | 1.39 | 1.09 | 1.13 | 0.85 | 0.718 |
| NCI-H460 | 0.83 | 0.708 | 0.676 | 0.699 | 0.714 | 0.728 | 0.66 | 0.709 | 0.665 | 0.705 |
| NCI-H520 | 0.737 | 0.77 | 0.59 | 0.839 | 0.761 |  |  |  |  |  |
| NCI-H522 | 1.12 | 0.897 | 0.954 | 0.918 | 0.916 | 0.901 | 0.907 | 0.953 | 0.827 | 0.738 |
| NCI-H596 | 0.731 | 0.706 | 0.816 | 0.692 | 0.616 | 1.04 | 1.21 | 1.13 | 1.17 | 1.2 |
